The structures appear in SMILES notation.

This assay addresses hSTING (Homo sapiens, UniProt Q86WV6). Put plainly: STING reporter assay in THP1-Dual KO-IFNAR2 cells (2′3′cGAMP stimulation, luciferase reporter). Type of assay: cell-based. Particulars: 15 μM 2′3′cGAMP, 24 h, luciferase reporter activity. The procedure:
STING pathway activation by the compounds described herein was measured using THP1-Dual™ cells (KO-IFNAR2).
THP1-Dual™ KO-IFNAR2 Cells (obtained from invivogen) were maintained in RPMI, 10% FCS, 5 ml P/S, 2 mM L-glut, 10 mM Hepes, and 1 mM sodium pyruvate. Compounds were spotted in empty 384 well tissue culture plates (Greiner 781182) by Echo for a final concentration of 0.0017-100 μM. Cells were plated into the TC plates at 40 μL per well, 2×10E6 cells/mL. For activation with STING ligand, 2′3′cGAMP (MW 718.38, obtained from Invivogen), was prepared in Optimem media.
The following solutions were prepared for each 1×384 plate: • Solution A: 2 mL Optimem with one of the following stimuli: • 60 μL of 10 mM 2′3′cGAMP→150 μM stock • Solution B: 2 mL Optimem with 60 μL Lipofectamine 2000→Incubate 5 min at RT
2 mL of solution A and 2 ml Solution B was mixed and incubated for 20 min at room temperature (RT). 20 μL of transfection solution (A+B) was added on top of the plated cells, with a final 2′3′cGAMP concentration of 15 μM. The plates were then centrifuged immediately at 340 g for 1 minute, after which they were incubated at 37° C., 5% CO2, >98% humidity for 24 h. Luciferase reporter activity was then measured. EC50 values were calculated by using standard methods known in the art.
Luciferase reporter assay: 10 μL of supernatant from the assay was transferred to white 384-plate with flat bottom and squared wells. One pouch of QUANTI-Luc™ Plus was dissolved in 25 mL of water. 100 μL of QLC Stabilizer per 25 mL of QUANTI-Luc™ Plus solution was added. 50 μL of QUANTI-Luc™ Plus/QLC solution per well was then added. Luminescence was measured on a Platereader (e.g., Spectramax I3X (Molecular Devices GF3637001)).
Luciferase reporter activity was then measured. EC50 values were calculated by using standard methods known in the art.
(In general: A reporter such as luciferase makes a cellular process visible.)

hSTING, sequence (Q86WV6 whole entry R71H/G230A/H232R/R293Q, form open): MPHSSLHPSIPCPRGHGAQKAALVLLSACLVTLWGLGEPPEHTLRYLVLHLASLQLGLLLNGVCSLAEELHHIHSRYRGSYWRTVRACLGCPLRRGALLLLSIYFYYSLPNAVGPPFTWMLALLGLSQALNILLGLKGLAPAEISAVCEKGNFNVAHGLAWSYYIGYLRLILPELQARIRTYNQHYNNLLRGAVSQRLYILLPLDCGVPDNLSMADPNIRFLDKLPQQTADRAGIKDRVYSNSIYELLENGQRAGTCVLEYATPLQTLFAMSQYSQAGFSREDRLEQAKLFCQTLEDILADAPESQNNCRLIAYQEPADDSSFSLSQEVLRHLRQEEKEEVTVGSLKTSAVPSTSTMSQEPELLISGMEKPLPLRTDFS

The term EC50 denotes the concentration needed to bring the measured effect to its halfway point. In turn, `CC(=O)N1CCC(NC(=O)Nc2c[nH]c3ccc(-c4cnn(-c5ccc(C(F)(F)F)cc5)c4)cc23)C1` (centres unmarked) [Compound 101, 1-(1-acetylpyrrolidin-3-yl)-3-(5-(1-(4-(trifluoromethyl)phenyl)-1H-pyrazol-4-yl)-1H-indol-3-yl)urea] returned an EC50 of 1000 to 5000 nM.
For the compound `CC(C)(O)CNC(=O)Nc1c[nH]c2ccc(-c3cnn(-c4ccc(C(F)(F)F)cc4)c3)cc12` [Compound 102, 1-(2-hydroxy-2-methylpropyl)-3-(5-(1-(4-(trifluoromethyl)phenyl)-1H-pyrazol-4-yl)-1H-indol-3-yl)urea], the EC50 is 200 to 1000 nM.
Consider `O=C(NCC1CC1)Nc1c[nH]c2ccc(-c3cnn(Cc4ccc(C(F)(F)F)cc4)c3)cc12` [Compound 103, 1-(cyclopropylmethyl)-3-(5-(1-(4-(trifluoromethyl)benzyl)-1H-pyrazol-4-yl)-1H-indol-3-yl)urea], for which the EC50 was 200 to 1000 nM.
The compound `O=C(NCC(F)(F)F)Nc1c[nH]c2ccc(-c3cnn(-c4ccc(C(F)(F)F)cc4)c3)cc12` [Compound 104, 1-(2,2,2-trifluoroethyl)-3-(5-(1-(4-(trifluoromethyl)phenyl)-1H-pyrazol-4-yl)-1H-indol-3-yl)urea] had an EC50 of 200 to 1000 nM.
The compound `CNC(=O)Nc1c[nH]c2ccc(-c3cnn(Cc4ccc(C(F)(F)F)cc4)c3)cc12` [Compound 105, 1-methyl-3-(5-(1-(4-(trifluoromethyl)benzyl)-1H-pyrazol-4-yl)-1H-indol-3-yl)urea] showed a half-maximal effective concentration (EC50) of 200 to 1000 nM.
For `O=C(NCC1CC1)Nc1c[nH]c2ccc(-c3cnn(-c4ccc(C(F)(F)F)cn4)c3)cc12` [Compound 106, 1-(cyclopropylmethyl)-3-(5-(1-(5-(trifluoromethyl)pyridin-2-yl)-1H-pyrazol-4-yl)-1H-indol-3-yl)urea], the EC50 was 200 to 1000 nM.
The result for `O=C(NCC(F)(F)F)Nc1c[nH]c2ccc(-c3cnn(-c4ccc(C(F)(F)F)cn4)c3)cc12` [Compound 107, 1-(2,2,2-trifluoroethyl)-3-(5-(1-(5-(trifluoromethyl)pyridin-2-yl)-1H-pyrazol-4-yl)-1H-indol-3-yl)urea] reads 200 to 1000 nM; that for `CCc1ccc(-n2cc(-c3ccc4[nH]cc(NC(=O)N5CCN(C(C)=O)CC5)c4c3)cn2)cc1` [Compound 108, 4-acetyl-N-{5-[1-(4-ethylphenyl)-1H-pyrazol-4-yl]-1H-indol-3-yl}piperazine-1-carboxamide], 1000 to 5000 nM.
In turn, `O=C(NCC1CC1)Nc1c[nH]c2ccc(-c3cnn(-c4ccc(C(F)(F)F)cc4)c3)cc12` [Compound 109, 1-(cyclopropylmethyl)-3-(5-(1-(4-(trifluoromethyl)phenyl)-1H-pyrazol-4-yl)-1H-indol-3-yl)urea] registered an EC50 of 200 to 1000 nM.
In the case of `CCc1ccc(-n2cc(-c3ccc4[nH]cc(NC(=O)NCCOC)c4c3)cn2)cc1` [Compound 110, 1-(5-(1-(4-ethylphenyl)-1H-pyrazol-4-yl)-1H-indol-3-yl)-3-(2-methoxyethyl) urea], the EC50 lay in the range of 200 to 1000 nM.
Turning to `CCc1ccc(-n2cc(-c3ccc4[nH]cc(NC(=O)NCC5CCCC5)c4c3)cn2)cc1` [Compound 111, 1-(cyclopentylmethyl)-3-{5-[1-(4-ethylphenyl)-1H-pyrazol-4-yl]-1H-indol-3-yl}urea], the EC50 fell in the range of 200 to 1000 nM.
Take `CCc1ccc(-n2cc(-c3ccc4[nH]cc(NC(=O)N5CCCC5)c4c3)cn2)cc1` [Compound 112, N-(5-(1-(4-ethylphenyl)-1H-pyrazol-4-yl)-1H-indol-3-yl)pyrrolidine-1-carboxamide]: the concentration giving a half-maximal response (EC50) fell in the range of 200 to 1000 nM.
In turn, `CNC(=O)Nc1c[nH]c2ccc(-c3cnn(-c4cccc(Cl)c4)c3)cc12` [Compound 113, 1-{5-[1-(3-chlorophenyl)-1H-pyrazol-4-yl]-1H-indol-3-yl}-3-methylurea] returned an EC50 of 200 to 1000 nM.
`CCc1ccc(-n2cc(-c3ccc4[nH]cc(NC(=O)NCCC(F)(F)F)c4c3)cn2)cc1` [Compound 114, 1-(5-(1-(4-ethylphenyl)-1H-pyrazol-4-yl)-1H-indol-3-yl)-3-(3,3,3-trifluoropropyl)urea] showed a 50% effective concentration (EC50) of 40 to 200 nM.
In the case of `CNC(=O)Nc1c[nH]c2ccc(-c3cnn(-c4ccccc4Cl)c3)cc12` [Compound 115, 1-{5-[1-(2-chlorophenyl)-1H-pyrazol-4-yl]-1H-indol-3-yl}-3-methylurea], the EC50 lay in the range of 1000 to 5000 nM.
Regarding `CNC(=O)Nc1c[nH]c2ccc(-c3cnn(-c4cccc(C#N)c4)c3)cc12` [Compound 116, 1-{5-[1-(3-cyanophenyl)-1H-pyrazol-4-yl]-1H-indol-3-yl}-3-methylurea], the EC50 fell in the range of 5000 to 100000 nM.
The value for `CNC(=O)Nc1c[nH]c2ccc(-c3ccnc(N4CCCCC4)c3)cc12` [Compound 117, 3-methyl-1-{5-[2-(piperidin-1-yl)pyridin-4-yl]-1H-indol-3-yl}urea] was 5000 to 100000 nM; that for `CNC(=O)Nc1c[nH]c2ccc(-c3cnn(-c4ccc(C(F)(F)F)cc4)c3)cc12` [Compound 118, 1-methyl-3-(5-(1-(4-(trifluoromethyl)phenyl)-1H-pyrazol-4-yl)-1H-indol-3-yl)urea] was 200 to 1000 nM.
The result for `CCc1ccc(-n2cc(-c3ccc4[nH]cc(NC(=O)N(C)C)c4c3)cn2)cc1` [Compound 119, 3-(5-(1-(4-ethylphenyl)-1H-pyrazol-4-yl)-1H-indol-3-yl)-1,1-dimethylurea] reads 200 to 1000 nM; that for `CCc1ccc(-n2cc(-c3ccc4[nH]cc(NC(=O)NC5CCCC5)c4c3)cn2)cc1` [Compound 120, 1-cyclopentyl-3-(5-(1-(4-ethylphenyl)-1H-pyrazol-4-yl)-1H-indol-3-yl)urea], 200 to 1000 nM.
As for `CNC(=O)Nc1c[nH]c2ccc(-c3ccc(C4(C#N)CC4)cc3)cc12` [Compound 121, 1-{5-[4-(1-cyanocyclopropyl)phenyl]-1H-indol-3-yl}-3-methylurea], the concentration giving a half-maximal response (EC50) is 5000 to 100000 nM.
The compound `CNC(=O)Nc1c[nH]c2ccc(-c3cccc(C4CC4)c3)cc12` [Compound 122, 1-[5-(3-cyclopropylphenyl)-1H-indol-3-yl]-3-methylurea] showed a half-maximal effective concentration (EC50) of 1000 to 5000 nM.
Compound `CNC(=O)Nc1c[nH]c2ccc(-c3cnn(C4CCCC4)c3)cc12` [Compound 123, 1-[5-(1-cyclopentyl-1H-pyrazol-4-yl)-1H-indol-3-yl]-3-methylurea] returned a concentration giving a half-maximal response (EC50) of 5000 to 100000 nM.
`CCc1ccc(-n2cc(-c3ccc4[nH]cc(NC(=O)NC5CCOC5)c4c3)cn2)cc1` (centres unmarked) [Compound 124, 1-(5-(1-(4-ethylphenyl)-1H-pyrazol-4-yl)-1H-indol-3-yl)-3-(tetrahydrofuran-3-yl)urea]: the concentration for a half-maximal effect (EC50) lay in the range of 200 to 1000 nM.
`CCc1ccc(-n2cc(-c3ccc4[nH]cc(NC(=O)N[C@H]5C[C@H](OC)C5)c4c3)cn2)cc1` [Compound 125, 1-(5-(1-(4-ethylphenyl)-1H-pyrazol-4-yl)-1H-indol-3-yl)-3-((1r,3r)-3-methoxycyclobutyl)urea] yielded an EC50 of 200 to 1000 nM.
As to `CCc1ccc(-n2cc(-c3ccc4[nH]cc(NC(=O)NC5CCC5)c4c3)cn2)cc1` [Compound 126, 1-cyclobutyl-3-(5-(1-(4-ethylphenyl)-1H-pyrazol-4-yl)-1H-indol-3-yl)urea], the half-maximal effective concentration (EC50) lay within 200 to 1000 nM.
`CCc1ccc(-n2cc(-c3ccc4[nH]cc(NC(=O)NCC(F)F)c4c3)cn2)cc1` [Compound 127, 1-(2,2-difluoroethyl)-3-(5-(1-(4-ethylphenyl)-1H-pyrazol-4-yl)-1H-indol-3-yl)urea] displayed an EC50 of 200 to 1000 nM.
`CCc1ccc(-n2cc(-c3ccc4[nH]cc(NC(=O)NCC5CC5)c4c3)cn2)cc1` [Compound 128, 1-(cyclopropylmethyl)-3-(5-(1-(4-ethylphenyl)-1H-pyrazol-4-yl)-1H-indol-3-yl)urea] yielded an EC50 of 200 to 1000 nM.
For the compound `CCc1ccc(-n2cc(-c3ccc4[nH]cc(NC(=O)NCC(F)(F)F)c4c3)cn2)cc1` [Compound 129, 1-{5-(1-(4-ethylphenyl)-1H-pyrazol-4-yl]-1H-indol-3-yl}-3-(2,2,2-trifluoroethyl)urea], the EC50 fell in the range of 40 to 200 nM.
For `CCc1ccc(-n2cc(-c3ccc4[nH]cc(NC(=O)NC(C)C)c4c3)cn2)cc1` [Compound 130, 1-(5-(1-(4-ethylphenyl)-1H-pyrazol-4-yl)-1H-indol-3-yl)-3-isopropylurea], the EC50 is 200 to 1000 nM.
The compound `CNC(=O)Nc1c[nH]c2ccc(-c3cnn(-c4ccccc4)c3)cc12` [Compound 131, 3-methyl-1-[5-(1-phenyl-1H-pyrazol-4-yl)-1H-indol-3-yl]urea] came in with an EC50 of 1000 to 5000 nM.
Consider `CCc1ccc(-n2cc(-c3ccc4[nH]cc(NC(=O)NC)c4c3)cn2)cc1` [Compound 132, 1-(5-(1-(4-ethylphenyl)-1H-pyrazol-4-yl)-1H-indol-3-yl)-3-methylurea], for which the concentration for a half-maximal effect (EC50) lay in the range of 200 to 1000 nM.

For the origin of these results see US12152018B2, “Compounds and compositions for treating conditions associated with STING activity” (IFM Due, Inc., priority 2021, dated 2024).
